Here are results for one compound from paper doi:10.1101/2021.05.29.446083v1 (biorxiv, 2021).

The structures appear in SMILES notation. Numbering of substitutions follows the chain as printed.

Experiment [1] addresses T1, 5-HT1F (Homo sapiens, UniProt P30939).
T1 sequence (P30939 1-366): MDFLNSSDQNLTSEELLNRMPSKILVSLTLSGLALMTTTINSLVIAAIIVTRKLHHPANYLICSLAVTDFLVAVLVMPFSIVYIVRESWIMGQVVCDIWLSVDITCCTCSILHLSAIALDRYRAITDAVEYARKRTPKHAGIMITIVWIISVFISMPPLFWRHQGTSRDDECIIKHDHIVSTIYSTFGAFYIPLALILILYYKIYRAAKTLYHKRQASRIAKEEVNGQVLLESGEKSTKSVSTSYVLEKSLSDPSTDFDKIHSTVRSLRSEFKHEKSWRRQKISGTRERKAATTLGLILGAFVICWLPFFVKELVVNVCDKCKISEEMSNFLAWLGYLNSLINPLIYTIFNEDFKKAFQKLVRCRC
The experiment can be described thus: NanoBiT Gi recruitment assay. The experiment is classed as cell-based.

The target in another experiment is 5-HT1F–Gi1 complex (Homo sapiens, UniProt P30939). The experiment can be described thus: cryo-EM structure, […] Å. Conditions: orthosteric and extended binding pocket; 10 μM lasmiditan, pH 7.4.
Experiment [2] has as its target T2, 5-HT1F (Homo sapiens, UniProt P30939, I104A).
T2 sequence (P30939 1-366 I104A): T1 sequence (P30939 1-366) with I104A
The experiment in a line: NanoBiT Gi recruitment assay. Type of experiment: cell-based.

In experiment [3] the target is T3, 5-HT1F (Homo sapiens, UniProt P30939, F310A).
T3 sequence (P30939 1-366 F310A): T1 sequence (P30939 1-366) with F310A
The experiment in a line: NanoBiT Gi recruitment assay. The experiment is classed as cell-based.

A word on the EC50: it is the concentration needed to bring the measured effect to its halfway point. `CN1CCC(C(=O)c2cccc(NC(=O)c3c(F)cc(F)cc3F)n2)CC1` [lasmiditan]: the results for the EC50 at 5-HT1F [1], at 5-HT1F [2] and on 5-HT1F [3] were 30.2 nM, 2190 nM and above 100000 nM, respectively. Also, the “cryo-EM structure, 3.4 Å” value at 5-HT1F–Gi1 complex is on record as “the lasmiditan-bound 5-HT1F–Gi complex”.
